What was measured:
[1] = tested on: human ESCs; experiment: mRNA-Seq of H9 hESCs treated with coronatine; format: cell-based; conditions: H9 cells, 50 μM coronatine, 2 days
[2] = tested on: J-p53 (OsJAZ^33-p53); experiment: Coronatine-dependent degradation of J-p53 in H9 hESCs (western blot quantification); format: cell-based, human; conditions: 50 μM coronatine, 1 day
Procedure: FIGS. 11A-11G illustrate a coronatine-induced degradation rescue system. […] GFP fluorescence was measured by flow cytometry and % degradation was calculated. The corresponding components and biological replicate number (n) are indicated. The bar for pJAZ 6-Os23 is in grey color, to indicate reduced GFP fluorescence in non-treated cells (FIG. 10F). […] GFP fluorescence was measured using flow cytometry. The experiment was repeated three times, and representative results are presented. In FIGS. 11C-11D, H9 hESCs were infected with pJAZ NLS-GFP-OsJAZ^33 (“GFP-J”) or pJAZ OsJAZ^33-p^53 (“J-p53”) that harbors an shRNA targeting the 3′-UTR of p53 and an OsJAZ^33degron-fused p53 coding sequence lacking UTRs. […] P-values were calculated using unpaired Student's t-test. […] After 24 hours, microscopic bright-field (“BF”) and fluorescence images were taken (FIG. 11E, scale bars, 100 μm) and cells were subjected to flow analysis (FIG. 11F, contour plots; FIG. 11G, quantification, error bars represent standard deviation.). […]
Cells were lysed in RIPA-B buffer (20 mM Na2HPO4 pH 7.4, 150 mM NaCl and 1% Triton X-100) supplemented with Protease Inhibitor Cocktail (Roche) for 30 minutes on ice with occasional vortexing, followed by 30 minutes centrifugation at 13,000 relative centrifugal force at 4° C. […] Luminescence was detected with X-ray films, which were scanned, or using the Bio-Rad ChemiDoc MP System. […]

With `CC[C@H]1C=C(C(=O)N[C@@]2(C(=O)O)C[C@@H]2CC)[C@H]2CCC(=O)[C@H]2C1` [coronatine, Coronatine] the “effect on global gene expression patterns” value ([1]; mRNA-Seq) was “does not affect global gene expression patterns”, the “genes with differential expression between coronatine and control samples” value ([1]; P<0.05 and fold change >2 in both replicates) was “only two genes” and the “coronatine-dependent degradation of J-p53” value [2] was 90%.

— patent publication US11078496B2, “System for F-box hormone receptor regulated protein expression in mammalian cells” (ICAHN SCHOOL OF MEDICINE AT MOUNT SINAI, priority 2016, dated 2021)
